Data reported in patent US20240360146A1, “BRUTON'S TYROSINE KINASE AND MUTANT DEGRADER, COMPOSITION AND APPLICATION THEREOF” (HANGZHOU HEALZEN THERAPEUTICS CO., LTD., priority 2021, published 2024).

Key:
[1] = Mouse absorption test (pharmacokinetic properties in mice); type: in vivo; conditions: intragastric, 30 mg/kg; for DNAUC: DNAUC = AUC/Dose; for Cmax: mouse, plasma, po
Method: […] The blood collection time points for intragastric administration were 0.25, 0.5, 1, 2, 4, 6, 8, and 24 h. 0.5 mL of blood was taken with a capillary tube from the orbit, and placed in an EP tube containing EDTA anticoagulant. The EP tube was shaken gently for mixing uniformly, and centrifuged at 3500 rpm and 4° C. for 10 min. The supernatant, i.e., plasma, was taken. Analysis was performed using LC-MS/MS.

[2] = Stability of compounds in human liver microsome; type: in vitro ADME; conditions: human liver microsomes, NADPH, 37° C., sampling 0-120 min; read-out: Human liver microsome T1/2
Procedure, shortened: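 Compound incubated at 37° C with human liver microsomes (1 mg in 1 mL PBS) plus NADPH. Samples taken at 0, 15, 30, 60 and 120 min, quenched into internal standard solution and analysed by LC/MS; metabolism calculated from peak area.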

OCI-LY10 cells = experiment: Inhibitory activity on OCI-LY10 cell proliferation (MTS); type: cell-based; conditions: Homo sapiens, 72 h
Procedure, shortened: (§1)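 Cells seeded at 10000/well, treated with compounds from 1000 nM (4-fold, 8 points) for 72 h (OCI-LY10) or 168 h (Mino) at 37° C. MTS added for 2 h, stopped with SDS, absorbance read at 490 and 650 nm; IC50 from dose-response fit.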

BTK = biological target: T1, BTK (Homo sapiens, UniProt Q06187); experiment: BTK degradation activity test in Mino cells; type: cell-based; conditions: 16 h incubation, Western blot or Elisa
T1 construct: endogenous in cells; host or cells: Mino cells
Procedure, shortened: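 DC50 derived by curve fitting of BTK degradation rates versus untreated control across compound concentrations. Mino cells were exposed for 16 h; BTK levels in lysates, normalised via BCA protein, measured by Western blot or ELISA.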

Mino cells = experiment: Inhibitory activity on Mino cell proliferation (MTS); type: cell-based; conditions: Homo sapiens, 168 h incubation
Procedure, shortened: as §1

BTK-C481S = biological target: T2, BTK-C481S (Homo sapiens, UniProt Q06187, C481S); experiment: BTK-C481S degradation activity test in HEK293 OE BTK-C481S cells; type: cell-based; conditions: 24 h incubation, Western blot or Elisa
T2 construct: expressed in transfected cells; host or cells: HEK293 OE BTK-C481S (overexpressing) cell line
Method: HEK293 OE BTK-C481S cell line cells were seeded at 500,000 to 1,000,000 cells/well in a 6-well plate. The compounds were diluted to different concentrations and added to the plate, and after 24 h of incubation, the cells were harvested. After lysing the cells, the total protein concentration in each well was determined using the BCA method. The amount of BTK-C481S was determined using Western blot or Elisa method. The amount of undegraded BTKC481S protein at each drug concentration was compared with the amount of BTKC481S protein in the blank control group to calculate the degradation rate. The degradation curve was drawn based on the degradation rate at each concentration, and the half degradation concentration (DC50) was calculated by fitting.

[3] = system: OCL-LY10 transplanted tumors; experiment: Chronic efficacy test, OCL-LY10 subcutaneous transplanted tumor model; type: in vivo; conditions: NOD/SCID mice, intragastric 10 mg/kg, 3 weeks
Method: NOD/SCID mice were subcutaneously inoculated with OCL-LY10 cells to establish a tumor model. When the tumors grew to about 100 mm^3, the mice were administered with drugs in groups. The mode of administration was as follows: the test compound was administered intragastrically at 10 mg/kg; The changes in body weight and tumor size of the mice were measured twice per week. After 3 weeks, the mice were sacrificed by cervical dislocation, and the efficacy of the compounds on transplanted tumors in OCL-LY10 mice was examined.

B cell activation = experiment: Test of inhibition of B cell activation in PBMC (Anti-Human IgM stimulation, flow cytometry); type: cell-based; conditions: Anti-Human IgM 50 μg/mL, 18 h
Method: The PBMC cell cryopreservation liquid was resuspended in 1640 complete culture medium to an appropriate concentration, and inoculated into a 96-well round-bottom plate at 15×10^4 cells/90 μL/well, and the culture plate was placed in a CO2 incubator for incubation.
The compounds to be tested were formulated into 10 mM stock solutions which were then fold-serially diluted with DMSO, and then diluted with 1640 complete culture liquid to make the concentration 100 times of the final concentration. The compound diluent was added into the cell solution in each well at 1 μL/well and shaken gently. 2 duplicate wells were set up for each concentration. The dosed cell plate was placed in a 37° C. incubator with 5% carbon dioxide and incubated for 1 h.
3. The dosed cell culture plate was taken and 10 μL of Anti-Human IgM-UNLB was added into the well corresponding to the compound to be tested; in 2 groups of cell blank wells, only 10 μL of Anti-Human IgM-UNLB was added; and in 3 groups of cell blank wells, no reagents and antibodies were added. The final concentration of Anti-Human IgM-UNLB was 50 μg/mL.
4. The loaded cell culture plate was placed in a 37° C. incubator with 5% carbon dioxide and incubated for 18 h. Total system: 90 μL PBMC+1 μL compound+10 μL Anti-Human IgM-UNLB
5. Samples were collected and stained, and the cells were analyzed using flow cytometry to obtain data. (When analyzed using flow cytometry, lymphocytes were gated).

T2 sequence (Q06187 whole entry C481S): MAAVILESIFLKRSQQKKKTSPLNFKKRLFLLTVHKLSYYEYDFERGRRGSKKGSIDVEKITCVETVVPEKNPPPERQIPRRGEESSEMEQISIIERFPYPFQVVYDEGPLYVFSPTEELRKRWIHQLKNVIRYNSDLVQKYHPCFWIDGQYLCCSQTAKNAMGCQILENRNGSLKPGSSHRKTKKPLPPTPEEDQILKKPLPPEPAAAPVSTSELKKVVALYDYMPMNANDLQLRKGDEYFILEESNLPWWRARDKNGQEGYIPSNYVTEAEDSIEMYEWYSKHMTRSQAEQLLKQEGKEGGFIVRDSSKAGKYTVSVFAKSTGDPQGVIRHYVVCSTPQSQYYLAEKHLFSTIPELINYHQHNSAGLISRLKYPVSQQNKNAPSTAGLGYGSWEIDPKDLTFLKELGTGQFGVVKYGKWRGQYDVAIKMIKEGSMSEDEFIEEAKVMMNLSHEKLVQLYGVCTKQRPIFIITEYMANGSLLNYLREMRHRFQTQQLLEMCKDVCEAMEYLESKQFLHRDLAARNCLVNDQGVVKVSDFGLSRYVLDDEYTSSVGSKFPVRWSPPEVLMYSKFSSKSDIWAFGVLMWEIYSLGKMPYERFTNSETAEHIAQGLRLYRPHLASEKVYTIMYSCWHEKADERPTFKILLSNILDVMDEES
T1 sequence (Q06187 whole entry): as the sequence (Q06187 whole entry C481S) above, with S481C counted along it

| SMILES | DNAUC [1] [ng/ml*h/mpk] | Cmax ([1]; class symbols) [ng/mL] | half-life at 0.97 µg/mL [2] [min] | IC50 (OCI-LY10 cells) [nM] | DC50 (BTK) [nM] | IC50 (Mino cells) [nM] | DC50 (BTK-C481S) [nM] | TGI (%) [3] [%] | Cmax [1] [ng/mL] | Inhibition ratio % (B cell activation; concentration 0.16 nM) [%] | Inhibition ratio % (B cell activation; concentration 0.80 nM) [%] |
| --- | --- | --- | --- | --- | --- | --- | --- | --- | --- | --- | --- |
| CN1CCN([C@@H]2CCCN(c3nnc(C(N)=O)c(Nc4ccc(N5CCN(CC6CCN(c7ccc(C(=O)NC8CCC(=O)NC8=O)c(F)c7)CC6)CC5)c(F)c4)n3)C2)C1=O (stereo partly drawn) [Compound 254, 5-((4-(4-((1-(4-((2,6-dioxopiperidin-3-yl)carbamoyl)-3-fluorophenyl)piperidin-4-yl)methyl)piperazin-1-yl)-3-fluorophenyl)amino)-3-((R)-3-(3-methyl-2-oxoimidazolidin-1-yl)piperidin-1-yl)-1,2,4-triazin-6-carboxamide] | 2536 | > 6000 | > 30 | 0.89 | < 1 |  |  |  |  |  |  |
| CN1CCN([C@@H]2CCCN(c3nnc(C(N)=O)c(Nc4ccc(N5CCN(CC6CCN(c7ccc8c(c7)C(=O)N(C7CCC(=O)NC7=O)C8=O)C6)CC5)c(F)c4)n3)C2)C1=O (stereo partly drawn) [Compound 130, 5-((4-(4-((1-(2-(2,6-dioxopiperidin-3-yl)-1,3-dioxoisoindolin-5-yl)pyrrolidin-3-yl)methyl)piperazin-1-yl)-3-fluorophenyl)amino)-3-((R)-3-(3-methyl-2-oxoimidazolin-1-yl)piperidin-1-yl)-1,2,4-triazin-6-carboxamide] | 3809 | > 6000 | 32.6 | 0.28 | < 1 | 2.41 | < 10 |  |  |  |  |
| CN1CCN([C@@H]2CCCN(c3nnc(C(N)=O)c(Nc4ccc(C5CCN(CC6CCN(c7ccc8c(c7)C(=O)N(C7CCC(=O)NC7=O)C8=O)CC6)CC5)cc4)n3)C2)C1=O (stereo partly drawn) [Compound 123, 5-((4-(1-((1-(2-(2,6-dioxopiperidin-3-yl)-1,3-dioxoisoindolin-5-yl)piperidin-4-yl)methyl)piperidin-4-yl)phenyl)amino)-3-((R)-3-(3-methyl-2-oxoimidazolin-1-yl)piperidin-1-yl)-1,2,4-triazin-6-carboxamide] | 1920 | > 6000 |  | 0.2 | < 1 | 2.11 | < 10 | 95.66 |  |  |  |
| C=CC(=O)N1CCC[C@@H](n2nc(-c3ccc(Oc4ccccc4)cc3)c3c(N)ncnc32)C1 [Ibrutinib] |  |  |  |  |  |  |  | 50.72 |  |  |  |
| CN1CCN([C@@H]2CCCN(c3nnc(C(N)=O)c(Nc4ccc(N5CCN(CC6CCN(c7ccc(C(=O)NC8CCC(=O)NC8=O)nc7)CC6)CC5)c(F)c4)n3)C2)C1=O (stereo partly drawn) [Compound 146, 5-((4-(4-((1-(6-((2,6-dioxopiperidin-3-yl)carbamoyl)pyridin-3-yl)piperidin-4-yl)methyl)piperazin-1-yl)-3-fluorophenyl)amino)-3-((R)-3-(3-methyl-2-oxoimidazolin-1-yl)piperidin-1-yl)-1,2,4-triazin-6-carboxamide] |  |  | > 30 | 1.39 | < 1 | 1.73 | < 10 |  |  |  |  |
| COc1cc(N2CCC(CN3CCN(c4ccc(Nc5nc(N6CCC[C@@H](N7CCN(C)C7=O)C6)nnc5C(N)=O)cc4F)CC3)CC2)ccc1N1CCC(=O)NC1=O [Compound 259, (R)-5-((4-(4-((1-(4-(2,4-dioxotetrahydropyrimidin-1(2H)-yl)-3-methoxyphenyl)piperidin-4-yl)methyl)piperazin-1-yl)-3-fluorophenyl)amino)-3-(3-(3-methy 1-2-oxoimidazolidin-1-yl)piperidin-1-yl)-1,2,4-triazin-6-carboxamide] | 2223 | > 6000 | > 30 | 0.61 | < 1 | 5.58 | < 10 |  |  |  |  |
| CN1CCN([C@@H]2CCCN(c3nnc(C(N)=O)c(Nc4ccc(N5CCN(C[C@@H]6CCN(c7ccc8c(c7)C(=O)N(C7CCC(=O)NC7=O)C8=O)C6)CC5)c(F)c4)n3)C2)C1=O (stereo partly drawn) [Compound 131, 5-((4-(4-(((3S)-1-(2-(2,6-dioxopiperidin-3-yl)-1,3-dioxoisoindolin-5-yl)pyrrolidin-3-yl)methyl)piperazin-1-yl)-3-fluorophenyl)amino)-3-((R)-3-(3-methyl-2-oxoimidazolin-1-yl)piperidin-1-yl)-1,2,4-triazin-6-carboxamide] | 3614 |  | > 30 | 0.9 | < 1 | 3.61 | < 10 | 96.67 | 6190 | 60.8 | 100 |
| CN1CCN([C@@H]2CCCN(c3nnc(C(N)=O)c(Nc4ccc(N5CCN(CC6CCN(c7ccc(C(=O)N[C@H]8CCC(=O)NC8=O)nc7)C6)CC5)c(F)c4)n3)C2)C1=O (stereo partly drawn) [Compound 145, 5-((4-(4-((1-(6-(((S)-2,6-dioxopiperidin-3-yl)carbamoyl)pyridin-3-yl)pyrrolidin-3-yl)methyl)piperazin-1-yl)-3-fluorophenyl)amino)-3-((R)-3-(3-methyl-2-oxoimidazolin-1-yl)piperidin-1-yl)-1,2,4-triazin-6-carboxamide] | 2704 |  | > 30 | 0.56 | < 1 | 4.15 |  |  | 13800 |  |  |
| CN1CCN([C@@H]2CCCN(c3nnc(C(N)=O)c(Nc4ccc(N5CCN(CC6CCN(c7ccc(N8CCC(=O)NC8=O)cc7)CC6)CC5)c(F)c4)n3)C2)C1=O [Compound 255, (R)-5-((4-(4-((1-(4-(2,4-dioxotetrahydropyrimidin-1(2H)-yl)phenyl)piperidin-4-yl)methyl)piperazin-1-yl)-3-fluorophenyl)amino)-3-(3-(3-methyl-2-oxoimidazolidin-1-yl)piperidin-1-yl)-1,2,4-triazin-6-carboxamide] | 1955 | > 6000 | > 30 | 1.5 | < 1 | < 0.26 | < 10 |  |  |  |  |
